Test results reported in patent publication US7655643B2, “Antibacterial macrocycles with substituted biphenyl” (AiCuris GmbH & Co. KG, priority 2003, dated 2010).
Converted amounts (≈) assume the structure as drawn. Where a name gives a salt, the structure may show the parent alone.

How the values were obtained:
E. faecium L4001 [1] = experiment: MIC, alternative method, agar dilution test; assay type: cell-based, Enterococcus faecium; settings: for MIC: Enterococcus faecium
Description: (§1) The minimum inhibitory concentration (MIC) is the minimum concentration of an antibiotic with which the growth of a test microbe is inhibited over 18-24 h. The inhibitor concentration can be determined by standard microbiological methods using modified medium in an agar dilution test (see, for example, the National Committee for Clinical Laboratory Standards. Methods for dilution antimicrobial susceptibility tests for bacteria that grow aerobically; approved standard-fifth edition. NCCLS document M7-A5 [ISBN 1-56238-394-9]. NCCLS, 940 West Valley Road, Suite 1400, Wayne, PA. 19087-1898 USA, 2000). The bacterial microbes are cultivated on 1.5% agar plates containing 20% defibrinated horse blood. The test microbes, which are incubated on Columbia blood agar plates (Becton-Dickinson) overnight, are diluted in PBS, adjusted to a microbe count of about 5×10^5 microbes/ml and placed as drops (1-3 μl) on test plates. The test substances contain various dilutions of the test substances (1:2 dilution stages). The cultures are incubated at 37° C. in the presence of 5% CO2 for 18-24 hours.
(§2) The lowest concentration of each substance at which no visible bacterial growth occurs is defined as the MIC and is reported in μg/ml.

[2] = biological target: S. aureus 133 Translation; experiment: S. aureus in vitro transcription-translation assay (firefly luciferase, S30 extract); assay type: biochemical
Description: In order to construct a reporter plasmid which can be used in an in vitro transcription -translation assay from S. aureus the plasmid pBESTluc (Promega Corporation, USA) is used. The E. coli tac promoter present in this plasmid in front of the firefly luciferase is replaced by the capA1 promoter with appropriate Shine-Dalgarno sequence from S. aureus. The primers CAPFor 5′-[…] -[…]-3′ and CAPRev 5′-[…]-3′ are used for this. The primer CAPFor contains the capA1 promoter, the ribosome binding site and the 5′ region of the luciferase gene. After PCR using pBESTluc as template it is possible to isolate a PCR product which contains the firefly luciferase gene with the fused capA1 promoter. This is, after restriction with ClaI and HindIII, ligated into the vector pBESTluc which has likewise been digested with ClaI and HindIII. The resulting plasmid pla can be replicated in E. coli and be used as template in the S. aureus in vitro transcription-translation assay.
Six liters of BHI medium are inoculated with a 250 ml overnight culture of a S. aureus strain and allowed to grow at 37° C. until the OD600 nm is 2-4. The cells are harvested by centrifugation and washed in 500 ml of cold buffer A (10 mM Tris acetate, pH 8.0, 14 mM magnesium acetate, 1 mM DTT, 1 M KCl). After renewed centrifugation, the cells are washed in 250 ml of cold buffer A with 50 mM KCl, and the resulting pellets are frozen at −20° C. for 60 min. The pellets are thawed on ice in 30 to 60 min and taken up to a total volume of 99 ml in buffer B (10 mM Tris acetate, pH 8.0, 20 mM magnesium acetate, 1 mM DTT, 50 mM KCl). 1.5 ml lysostaphin (0.8 mg/ml) in buffer B are introduced into 3 precooled centrifuge cups each and each mixed with 33 ml of the cell suspension. The samples are incubated at 37° C., shaking occasionally, for 45 to 60 min, before 150 μl of a 0.5 M DTT solution are added. The lysed cells are centrifuged at 30 000×g and 4° C. for 30 min. The cell pellet is taken up in buffer B and then centrifuged again under the same conditions, and the collected supernatants are combined. The supernatants are centrifuged again under the same conditions, and 0.25 volumes of buffer C (670 mM Tris acetate, pH 8.0, 20 mM magnesium acetate, 7 mM Na3 phosphoenolpyruvate, 7 mM DTT, 5.5 mM ATP, 70 μM amino acids (complete from Promega), 75 μg of pyruvate kinase (Sigma, Germany)/ml are added to the upper ⅔ of the supernatant. The samples are incubated at 37° C. for 30 min. The supernatants are dialysed against 21 of dialysis buffer (10 mM Tris acetate, pH 8.0, 14 mM magnesium acetate, 1 mM DTT, 60 mM potassium acetate) in a dialysis tube with a 3500 Da cut-off with one buffer change at 4° C. overnight. The dialysate is concentrated to a protein concentration of about 10 mg/ml by covering the dialysis tube with cold PEG 8000 powder (Sigma, Germany) at 4° C. The S30 extracts can be stored in aliquots at −70° C.
Inhibition of protein biosynthesis of the compounds can be shown in an in vitro transcription-translation assay. The assay is based on the cell-free transcription and translation of firefly luciferase using the reporter plasmid pla as template and cell-free S30 extracts obtained from S. aureus. The activity of the resulting luciferase can be detected by luminescence measurement.
The amount of S30 extract or plasmid plato be employed must be tested anew for each preparation in order to ensure an optimal concentration in the assay. 3 μl of the substance to be tested, dissolved in 5% DMSO, are introduced into an MTP. Then 10 μl of a suitably concentrated plasmid solution p1 a are added. Then 46 μl of a mixture of 23 μl of premix (500 mM Potassium acetate, 87.5 mM Tris acetate, pH 8.0, 67.5 mM ammonium acetate, 5 mM DTT, 50 μg of folic acid/ml, 87.5 mg of PEG 8000/ml, 5 mM ATP, 1.25 mM each NTP, 20 μM each amino acid, 50 mM PEP (Na3 salt), 2.5 mM cAMP, 250 μg each E. coli tRNA/ml) and 23 μl of a suitable amount of S. aureus S30 extract are added and mixed. […]

S. aureus T17 [3] = experiment: MIC, alternative method, agar dilution test; assay type: cell-based; settings: for MIC: Staphylococcus aureus
Description: as §1, §2

S. aureus 133 [4] = experiment: MIC, alternative method, agar dilution test; assay type: cell-based
Description: as §1, §2

S. aureus T17 [5] = experiment: MIC, liquid dilution test (96-well microtitre plate); assay type: cell-based; settings: for MIC: Staphylococcus aureus, T17, read-out: MIC S. aureus T17
Description: (§3) The minimum inhibitory concentration (MIC) is the minimum concentration of an antibiotic with which the growth of a test microbe is inhibited over 18-24 h. The inhibitor concentration can in these cases be determined by standard microbiological methods (see, for example, The National Committee for Clinical Laboratory Standards. Methods for dilution antimicrobial susceptibility tests for bacteria that grow aerobically; approved standard-fifth edition. NCCLS document M7-A5 [ISBN 1-56238-394-9]. NCCLS, 940 West Valley Road, Suite 1400, Wayne, Pa. 19087-1898 USA, 2000). The MIC of the compounds of the invention is determined in the liquid dilution test on the 96-well microtitre plate scale. The bacterial microbes are cultivated in a minimal medium (18.5 mM Na2HPO4, 5.7 mM KH2PO4, 9.3 mM NH4Cl, 2.8 mM MgSO4, 17.1 mM NaCl, 0.033 μg/ml thiamine hydrochloride, 1.2 μg/ml nicotinic acid, 0.003 μg/ml biotin, 1% glucose, 25 μg/ml of each proteinogenic amino acid with the exception of phenylalanine; [H.-P. Kroll; unpublished]) with addition of 0.4% BH broth (test medium). In the case of Enterococcus faecium L4001, heat-inactivated fetal calf serum (FCS; GibcoBRL, Germany) is added to the test medium in a final concentration of 10%. Overnight cultures of the test microbes are diluted to an OD578 of 0.001(to 0.01 in the case of enterococci) in fresh test medium, and incubated 1:1 with dilutions of the test substances (1:2 dilution steps) in test medium (200 μl final volume). The cultures are incubated at 37° C. for 18-24 hours; enterococci in the presence of 5% CO2.
(§4) The lowest substance concentration in each case at which bacterial growth was no longer visible is defined as the MIC. […] The compounds show a graded antibacterial effect against most of the test microbes.
The S. aureus strain T17 is isolated in vivo. CFW1 mice are infected intraperitoneally with 4×10^7 S. aureus 133 cells per mouse. 0.5 h after the infection, the animals are treated intravenously with 50 mg/kg biphenomycin B. The kidneys are removed from the surviving animals on day 3 after the infection. After homogenization of the organs, the homogenates are plated out as described for RN4220Bi^R on antibiotic-free and antibiotic-containing agar plates and incubated at 37° C. overnight. […] About 20 of these colonies are tested for the biphenomycin B MIC, and a colony with an MIC of >50 μM is selected for further cultivation, and the strain is referred to as T17.

E. faecium L4001 [6] = experiment: as above; assay type: cell-based, Enterococcus faecium
Description: as §3, §4

S. aureus 133 [7] = experiment: as above; assay type: cell-based; settings: 18-24 h
Description: as §3, §4

S. aureus RN4220Bi^R = experiment: Biphenomycin B MIC of the isolated resistant colony; assay type: cell-based; settings: colony isolated in vitro
Description: The S. aureus strain RN422OBi^R is isolated in vitro. […] Whereas about 1×10^7 cells grow on the antibiotic-free plate, about 100 colonies grow on the antibiotic-containing plate, corresponding to a resistance rate of 1×10^−5. Some of the colonies grown on the antibiotic-containing plate are tested for the biphenomycin B MIC. One colony with an MIC of >50 μM is selected for further use, and the strain is referred to as RN4220Bi^R.

[8] = L4001, agar dilution, 1.5% agar with 20% defibrinated horse blood, 5% CO2, 18-24 h, read-out: MIC E. faecium L4001
[9] = T17, agar dilution, 1.5% agar with 20% defibrinated horse blood, 5% CO2, 18-24 h, read-out: MIC S. aureus T17
[10] = Staphylococcus aureus, 133, agar dilution, 1.5% agar with 20% defibrinated horse blood, 5% CO2, 18-24 h, read-out: MIC S. aureus 133
[11] = Enterococcus faecium, L4001, liquid dilution, test medium with 10% FCS, 5% CO2, 18-24 h, read-out: MIC E. faecium L4001
[12] = Staphylococcus aureus, 133, minimal medium + 0.4% BH broth
[13] = agar dilution, 1.5% agar with 20% defibrinated horse blood, 5% CO2, 18-24 h

SMILES	MIC (E. faecium L4001 [1]; [8])	IC50 ([2]; Table B)	MIC (S. aureus T17 [3]; [9])	MIC (S. aureus 133 [4]; [10])	MIC (S. aureus T17 [5])	MIC (E. faecium L4001 [6]; [11])	IC50 ([2]; Table A)	MIC (S. aureus 133 [7]; [12])	MIC (E. faecium L4001 [6]; Enterococcus faecium, L4001, read-out: MIC E. faecium L4001)	MIC (E. faecium L4001 [1]; L4001, read-out: MIC E. faecium L4001)	MIC (S. aureus T17 [3]; T17, read-out: MIC S. aureus T17)	MIC (S. aureus 133 [4]; Staphylococcus aureus, 133, read-out: MIC S. aureus 133)	MIC, selected colony RN4220Bi^R (S. aureus RN4220Bi^R)	MIC, selected colony T17 (S. aureus T17 [5]; colony isolated in vivo from mouse kidney)	MIC S. aureus T17 (S. aureus T17 [5]; liquid dilution, biphenomycin-resistant strain, 18-24 h)	MIC E. faecium L4001 (E. faecium L4001 [1]; [13])	MIC (E. faecium L4001 [6]; liquid dilution, test medium with 10% FCS, 5% CO2, 18-24 h, read-out: MIC E. faecium L4001)	MIC (S. aureus 133 [7]; minimal medium + 0.4% BH broth)	MIC S. aureus T17 (S. aureus T17 [3]; [13])	MIC S. aureus 133 (S. aureus 133 [4]; [13])
CN1C(=O)[C@H](CCCN)NC(=O)[C@@H](N)Cc2cc(ccc2O)-c2ccc(Cl)c(c2)C[C@H]1C(=O)NCCN(CCN)CCN [Example 42, (8S,11S,14S)-14-Amino-11-(3-aminopropyl)-N-{2-[bis(2-aminoethyl)amino]ethyl}-5-chloro-17-hydroxy-9-methyl-10,13-dioxo-9,12-diazatricyclo[14.3.1.1^2,6]henicosa-1(20),2(21)3,5,16,18-hexaene-8-carboxamide penta(hydrotrifluoroacetate)]	32 µg/mL (≈ 51.8 µM)	80 nM	2 µg/mL (≈ 3.24 µM)	2 µg/mL (≈ 3.24 µM)	–	–	–	–	–	–	–	–	–	–	–	–	–	–	–	–
NCCNC(=O)[C@@H]1Cc2cc(ccc2F)-c2ccc(O)c(c2)C[C@H](N)C(=O)N[C@@H](C[C@@H](O)CN)C(=O)N1 [Example 12]	16 µg/mL (≈ 31 µM)	800 nM	1 µg/mL (≈ 1.94 µM)	1 µg/mL (≈ 1.94 µM)	0.6 µM (≈ 0.31 µg/mL)	20 µM (≈ 10.3 µg/mL)	800 nM	0.16 µM	–	–	–	–	–	–	–	–	–	–	–	–
NCCNC(=O)[C@@H]1Cc2cccc(c2)-c2ccc(O)c(c2)C[C@H](N)C(=O)N[C@@H](C[C@@H](O)CN)C(=O)N1 [Example 36, (8S,11S,14S)-14-Amino-N-(2-aminoethyl)-11-[(2R) -3-amino-2-hydroxypropyl]-17-hydroxy-10,13-dioxo-9,12-diazatricyclo-[14.3.1.1^2,6]henicosa-1(20),2(21),3,5,16,18-hexaene-8-carboxamide tri(hydrotrifluoroacetate)]	8 µg/mL (≈ 16 µM)	360 nM	2 µg/mL (≈ 4.01 µM)	1 µg/mL (≈ 2.01 µM)	0.8 µM (≈ 0.399 µg/mL)	–	360 nM	0.4 µM	> 25 µM	–	–	–	–	–	–	–	–	–	–	–
NCCC[C@@H]1NC(=O)[C@@H](N)Cc2cc(ccc2O)-c2ccc(N)c(c2)C[C@@H](C(=O)NCCN)NC1=O [Example 43, (8S,11S,14S)-5,14-Diamino-N-(2-aminoethyl)-11-(3-aminopropyl)-17-hydroxy-10,13-dioxo-9,12-diazatricyclo[14.3.1.1^2,6]henicosa-1(20),2(21),3,5,16,18-hexaene-8-carboxamide tetrahydrochloride]	–	900 nM	–	–	–	–	–	–	–	> 32 µg/mL	4 µg/mL	2 µg/mL	–	–	–	–	–	–	–	–
CN1C(=O)[C@H](C[C@@H](O)CN)NC(=O)[C@@H](N)Cc2cc(ccc2O)-c2ccc(Cl)c(c2)C[C@H]1C(=O)NCC(O)CN (stereo partly drawn) [Example 9]	16 µg/mL (≈ 27.7 µM)	300 nM	4 µg/mL (≈ 6.93 µM)	2 µg/mL (≈ 3.47 µM)	0.7 µM (≈ 0.404 µg/mL)	11 µM (≈ 6.35 µg/mL)	300 nM	0.35 µM	–	–	–	–	–	–	–	–	–	–	–	–
NC[C@H](O)C[C@@H]1NC(=O)[C@@H](N)Cc2cc(ccc2O)-c2ccc(O)c(c2)C[C@@H](C(=O)O)NC1=O [Biphenomycin B, biphenomycin B, reference compound]	–	1500 nM	–	–	–	–	1500 nM	–	–	–	–	–	> 50 µM	> 50 µM	>25 µM	0.5 µg/mL (≈ 1.06 µM)	>25 µM	0.1 µM	>32 µg/mL	<0.03 µg/mL
